The source of these data is ChEMBL document CHEMBL4229419, “Phosphorus-containing isothiocyanate-derived mercapturic acids as a useful alternative for parental isothiocyanates in experimental oncology” (Bioorg Med Chem Lett, 2018).

For orientation: IC50 means the midpoint of a concentration-inhibition curve.

Active and inactive are the calls of the source. The rule behind the calls is not given here.

Assay [1] in a line: Antiproliferative activity against human LoVo/DX cells after 72 hrs by SRB assay. The assay is classed as functional, cell-based. Background: Sulforhodamine B stains cellular protein and so reports cell mass.
Assay [2] concerns LoVo. Kind of assay: Antiproliferative activity against human LoVo cells after 72 hrs by SRB assay. The assay is classed as functional, cell-based.
Assay [3] deals with LoVo. Kind of assay: Induction of apoptosis in human LoVo cells assessed as caspase-3 activation at 15 uM after 24 hrs by Ac-DEVD-ACC substrate based fluorescence assay relative to control. The assay is classed as functional.
Assay [4] has as its system BALB/3T3. Kind of assay: Antiproliferative activity against mouse BALB/3T3 cells after 72 hrs by MTT assay. The assay is classed as cell-based. The note with it: BALB/3T3, 72 h. Background: Formazan colour is commonly taken as a measure of viable cells.
Assay [5] relates to 4T1. The experiment in a line: Antiproliferative activity against mouse 4T1 cells after 72 hrs by MTT assay. The assay is classed as functional, cell-based. The note with it: 4T1, 72 h.
Assay [6] has as its system HL60/MX2. The experiment in a line: Antiproliferative activity against human HL60/MX2 cells after 72 hrs by SRB assay. The assay is classed as functional, cell-based. The note with it: HL60/MX2, 72 h.
Assay [7] deals with MES-SA/Dx5. The experiment in a line: Antiproliferative activity against human MES-SA/Dx5 cells after 72 hrs by SRB assay. The assay is classed as functional, cell-based. The note with it: MES-SA/Dx5, 72 h.
The test system of assay [8] is MES-SA. The experiment in a line: Antiproliferative activity against human MES-SA cells after 72 hrs by SRB assay. The assay is classed as functional, cell-based.
For assay [9], the system named is LoVo. Kind of assay: Cell cycle arrest in human LoVo cells assessed as accumulation at G2/M phase at 15 uM after 24 hrs by propidium iodide staining based flow cytometry (reference value: 21%). The assay is classed as functional.
A short description of assay [10]: Resistance index, ratio of IC50 for antiproliferative activity against human HL60/MX2 cells to IC50 for antiproliferative activity against human HL60 cells. The assay is classed as functional.
The test system of assay [11] is HL-60. The experiment in a line: Antiproliferative activity against human HL60 cells after 72 hrs by SRB assay. The assay is classed as functional, cell-based. The note with it: HL-60, 72 h.

In the case of `CCOP(=O)(CCCNC(=S)SC[C@H](NC(C)=O)C(=O)O)OCC`, the IC50 in assay [1] turned out to be 2.5 µM; in assay [2] it was 2.2 µM.
As to `COP(=O)(CCCCNC(=S)SC[C@H](NC(C)=O)C(=O)O)c1ccccc1` (some centres not stated), the half-maximal inhibitory concentration (IC50) in assay [1] was 2.9 µM; in [2], 2.7 µM.
For `CCOP(=O)(CCCCNC(=S)SC[C@H](NC(C)=O)C(=O)O)c1ccccc1` (some centres not stated), the IC50 was determined as 3.5 µM in [1] and 2.5 µM in assay [2].
In the same order, the values of `CCOP(=O)(CCCCCNC(=S)SC[C@H](NC(C)=O)C(=O)O)OCC` are 4 µM and 2.2 µM.
In the same order, the values of `CCOP(=O)(CCCCCCNC(=S)SC[C@H](NC(C)=O)C(=O)O)OCC` are 2.6 µM and 2.2 µM.
For the compound `CCOC(OCC)P(=O)(CCCCN=C=S)OCC` (configuration not stated), the IC50 in assay [1] was found to be 11.2 µM; in [2], 7 µM.
On to `CC(=O)N[C@@H](CSC(=S)NCCCCP(=O)(Oc1ccccc1)Oc1ccccc1)C(=O)O`, for which the half-maximal inhibitory concentration (IC50) in assay [1] was 7.9 µM; in assay [2], 2.2 µM.
`CC(=O)N[C@@H](CSC(=S)NCCCP(=O)(OCC(C)C)OCC(C)C)C(=O)O`: the IC50 stood at 17.9 µM in assay [1] and 19.3 µM in assay [2].
In the same order, the values of `CCOP(=O)(CCCCNC(=S)SC[C@H](NC(C)=O)C(=O)O)OCC` are 10 µM and 3.3 µM.
For the compound `CC(=O)N[C@@H](CSC(=S)NCCCCP(=O)(OC(C)C)OC(C)C)C(=O)O`, the IC50 in assay [1] came out at 8.9 µM; in assay [2] it was 2.6 µM.
Take `CC(=O)N[C@@H](CSC(=S)NCCCCCCP(=O)(OCC(C)C)OCC(C)C)C(=O)O`: the values for the IC50 in [1] and in [2] were 10.9 µM and 11.1 µM, respectively.
`CC(=O)N[C@@H](CSC(=S)NCCCCCP(=O)(Oc1ccccc1)Oc1ccccc1)C(=O)O`: the IC50 came to 8 µM in assay [1] and 1.9 µM in [2].
Take `CCOP(=O)(CCCCCNC(=S)SC[C@H](NC(C)=O)C(=O)O)c1ccccc1` (some centres not stated): the IC50 was 3.3 µM in [1] and 2 µM in assay [2].
In the same order, the values of `CC(=O)N[C@@H](CSC(=S)NCCCCCCP(=O)(Oc1ccccc1)Oc1ccccc1)C(=O)O` are 11.3 µM and 2.5 µM.
`CC(=O)N[C@@H](CSC(=S)NCCP(=O)(OC(C)C)OC(C)C)C(=O)O`: the IC50 came to 8.1 µM in assay [1] and 5 µM in assay [2].
On the same counts, the results for `CCOC(OCC)P(=O)(CCCCCNC(=S)SC[C@H](NC(C)=O)C(=O)O)OCC` (some centres not stated) are 8.4 µM and 3 µM.
With `O=P(CCN=C=S)(c1ccccc1)c1ccccc1`, the IC50 in assay [1] stood at 2.2 µM; in [2], 2 µM.
Consider `CCOP(=O)(CCCNC(=S)SC[C@H](NC(C)=O)C(=O)O)c1ccccc1` (some centres not stated), for which the IC50 is 3.4 µM in assay [1] and 2.2 µM in assay [2].
Take `CC(=O)N[C@@H](CSC(=S)NCCCCP(=O)(OCC(C)C)OCC(C)C)C(=O)O`: the IC50 is 9 µM in [1] and 3 µM in assay [2].
With `CCOC(OCC)P(=O)(CCCCNC(=S)SC[C@H](NC(C)=O)C(=O)O)OCC` (some centres not stated), the IC50 in [1] is 11.3 µM; in assay [2], 6.4 µM.
On to `CCOP(=O)(CCCCCCN=C=S)c1ccccc1` (configuration not stated), for which the IC50 in assay [1] stood at 4 µM; in [2] it was 2.3 µM.
Regarding `COP(=O)(CCCCCCNC(=S)SC[C@H](NC(C)=O)C(=O)O)c1ccccc1` (some centres not stated), the values for the IC50 in assay [1] and in [2] were 2.8 µM and 2.1 µM, respectively.
For `COP(=O)(CCCCCNC(=S)SC[C@H](NC(C)=O)C(=O)O)c1ccccc1` (some centres not stated), the IC50 in assay [1] was 2.6 µM; in assay [2], 2.5 µM.
In the case of `O=P(CCCCN=C=S)(c1ccccc1)c1ccccc1`, the IC50 in assay [1] and in assay [2] was 2.2 µM throughout.
`CC(=O)N[C@@H](CSC(=S)NCCCC[S+](C)[O-])C(=O)O` (some centres not stated): in assay [3], the outcome was Active. In addition, the figures for the IC50 in assay [1] and in assay [2] were 14 µM and 20.5 µM, respectively.
Regarding `COP(=O)(CCCCCCN=C=S)c1ccccc1` (configuration not stated), the IC50 in [1] stood at 2.3 µM; in assay [2], 1.8 µM.
As for `CCOC(OCC)P(=O)(CCCCCCN=C=S)OCC` (configuration not stated), the IC50 was 10.6 µM in assay [1] and 5.1 µM in assay [2].
For the compound `CC(=O)N[C@@H](CSC(=S)NCCCCCCP(=O)(OC(C)C)OC(C)C)C(=O)O`, in assay [3], the “fold change (FC)” value is reported as 2.2. Also, the IC50 in assay [1] amounted to 3.4 µM; in assay [4], 10.9 µM; in assay [5], 2.5 µM; in assay [2] it was 1.8 µM; in assay [6], 3 µM; in assay [7] it was 10.3 µM. The values for the IC50 in assay [8] and in [11] were 9.9 µM and 0.6 µM, respectively. For the same compound, the Activity in assay [9] turned out to be 24%. Also, the “Ratio IC50” value in [10] came out at 5.
Consider `O=C1c2c(O)ccc(O)c2C(=O)c2c(NCCNCCO)ccc(NCCNCCO)c21` [MITOXANTRONE], for which the “Ratio IC50” value in assay [10] turned out to be 37.
For the compound `CC(=O)N[C@@H](CSC(=S)NCCP(=O)(Oc1ccccc1)Oc1ccccc1)C(=O)O`, the IC50 in [1] amounted to 9 µM; in assay [2], 3.5 µM.
On the same counts, the results for `COP(=O)(CCCCN=C=S)c1ccccc1` (configuration not stated) are 2.3 µM and 3.1 µM.
`CCOP(=O)(CCCCN=C=S)c1ccccc1` (configuration not stated): the values for the IC50 in assay [1] and in [2] were 4.1 µM and 2.5 µM, respectively.
Take `CC(=O)N[C@@H](CSC(=S)NCCP(=O)(OCC(C)C)OCC(C)C)C(=O)O`: the values for the IC50 in assay [1] and in assay [2] were 3.9 µM and 2.2 µM, respectively.
In the same order, the values of `CC(=O)N[C@@H](CSC(=S)NCCP(=O)(c1ccccc1)c1ccccc1)C(=O)O` are 7.7 µM and 2 µM.
Take `CC(=O)N[C@@H](CSC(=S)NCCCP(=O)(OC(C)C)OC(C)C)C(=O)O`: the results for the IC50 in [1] and in [2] were 8.5 µM and 3.1 µM, respectively.
`CC(=O)N[C@@H](CSC(=S)NCCCCCP(=O)(c1ccccc1)c1ccccc1)C(=O)O`: the IC50 worked out at 4.3 µM in assay [1] and 1.5 µM in assay [2].
On to `CCCCNC(=S)SC[C@H](NC(C)=O)C(=O)O`, for which the IC50 came out at 224 µM in [1] and 201 µM in assay [2].
With `CC(=O)N[C@@H](CSC(=S)NCCCCP(=O)(c1ccccc1)c1ccccc1)C(=O)O`, the figures for the IC50 in assay [1] and in [2] were 8.1 µM and 4.4 µM, respectively.
For the compound `O=P(CCCCCCN=C=S)(c1ccccc1)c1ccccc1`, the IC50 is 3.1 µM in assay [1] and 2.2 µM in assay [2].
On to `CC(=O)N[C@@H](CSC(=S)NCc1ccccc1)C(=O)O`, for which the “fold change (FC)” value in assay [3] is on record as more than 10. Further, the IC50 in [1] was 15.4 µM; in assay [2], 11.5 µM. In assay [9], the Activity is given as 49%.
As to `CCOP(=O)(CCNC(=S)SC[C@H](NC(C)=O)C(=O)O)OCC`, the IC50 came to 8 µM in assay [1] and 2.2 µM in assay [2].
For the compound `CC(=O)N[C@@H](CSC(=S)NCCCP(=O)(Oc1ccccc1)Oc1ccccc1)C(=O)O`, the IC50 was 7.6 µM in [1] and 2 µM in assay [2].
For `CC(=O)N[C@@H](CSC(=S)NCCCCCP(=O)(OC(C)C)OC(C)C)C(=O)O`, the IC50 in assay [1] was 3.4 µM; in assay [2], 2.4 µM.
Take `CCOP(=O)(CCCCCCNC(=S)SC[C@H](NC(C)=O)C(=O)O)c1ccccc1` (some centres not stated): the “fold change (FC)” value in assay [3] came to 2.8. Besides, the IC50 was 2.2 µM in [1]; 7.9 µM in [4]; 1.9 µM in [5]; 1.5 µM in [2]; 0.7 µM in [6]; 2.6 µM in assay [7]. Also, the IC50 came to 2.8 µM in assay [8] and 0.4 µM in [11]. Further, the Activity in [9] is on record as 22%.
For `CC(=O)N[C@@H](CSC(=S)NCCCCCCP(=O)(c1ccccc1)c1ccccc1)C(=O)O`, the results for the IC50 in [1] and in assay [2] were 8.1 µM and 2.1 µM, respectively.
`CC(=O)N[C@@H](CSC(=S)NCCCP(=O)(c1ccccc1)c1ccccc1)C(=O)O`: the IC50 in assay [1] is 5.6 µM; in assay [2] it was 4.6 µM.
In the case of `CC(=O)N[C@@H](CSC(=S)NCCCCCP(=O)(OCC(C)C)OCC(C)C)C(=O)O`, the IC50 in assay [1] came out at 8.8 µM; in assay [2] it was 2.6 µM.
Take `COc1cccc2c1C(=O)c1c(O)c3c(c(O)c1C2=O)C[C@@](O)(C(=O)CO)C[C@@H]3O[C@H]1C[C@H](N)[C@H](O)[C@H](C)O1` [DOXORUBICIN]: the IC50 in assay [7] came to 16.2 µM; in [8] it was 0.16 µM.
As for `CCOC(OCC)P(=O)(CCCCCCNC(=S)SC[C@H](NC(C)=O)C(=O)O)OCC` (some centres not stated), the IC50 in [1] is 10.4 µM; in [2], 3.1 µM.
